This note sets out measurements from patent US10519152B2, “Compounds and their use in treating cancer” (AstraZeneca AB, priority 2017, dated 2019).

This assay addresses T1, Estrogen Receptor (ERα) in MCF-7 human ductal carcinoma breast cell line (Homo sapiens, UniProt P03372).
T1 construct: endogenous in cells; host or cells: MCF-7
T1 sequence (P03372 1-595): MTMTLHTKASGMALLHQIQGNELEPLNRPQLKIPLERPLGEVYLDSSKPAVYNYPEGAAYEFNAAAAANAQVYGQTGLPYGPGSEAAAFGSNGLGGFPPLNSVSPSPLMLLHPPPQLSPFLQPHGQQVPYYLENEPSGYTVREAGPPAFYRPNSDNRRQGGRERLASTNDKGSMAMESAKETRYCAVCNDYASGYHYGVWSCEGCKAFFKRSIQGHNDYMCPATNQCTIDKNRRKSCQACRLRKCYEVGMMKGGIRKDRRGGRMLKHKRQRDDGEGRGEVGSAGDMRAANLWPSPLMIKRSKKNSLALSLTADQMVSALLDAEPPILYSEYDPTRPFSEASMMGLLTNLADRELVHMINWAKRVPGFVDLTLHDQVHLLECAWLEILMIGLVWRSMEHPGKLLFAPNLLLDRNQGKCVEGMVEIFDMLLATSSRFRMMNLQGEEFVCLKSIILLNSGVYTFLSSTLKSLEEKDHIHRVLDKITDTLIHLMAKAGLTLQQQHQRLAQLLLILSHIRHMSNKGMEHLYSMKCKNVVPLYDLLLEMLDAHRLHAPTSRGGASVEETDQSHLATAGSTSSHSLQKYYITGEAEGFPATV
Kind of assay: MCF-7 ER degradation assay (cell based immuno-fluorescence). Particulars: MCF-7 cells; for ER degradation ≥ 90% at 0.3 μM: ER degradation by fulvestrant at 0.3 μM is defined as 100%; for DC50: 18-22 hours incubation, 50% reduction of ERα expression, single experiment or average of two or more, read-out: MCF-7 ER degradation IC50. In a few lines: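 MCF-7 human ductal carcinoma breast cells were seeded at 3.75×10^4 cells per mL (40 μL per well) in 384 well plates with phenol red free DMEM containing 2 mM L-Glutamine and 5% (v/v) Charcoal/Dextran treated foetal calf serum. After overnight culture, compounds were acoustically dispensed, incubated 18-22 hours, then cells were formaldehyde-fixed and immunostained for ERα.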

Regarding `Cc1ncsc1-c1ccc(CNC(=O)[C@@H]2C[C@@H](O)CN2C(=O)[C@@H](NC(=O)CCCCCCOCCCOc2cc(F)c([C@@H]3c4[nH]c5ccccc5c4C[C@@H](C)N3CC(C)(C)F)c(F)c2)C(C)(C)C)cc1` [Example 110, (2S,4R)-1-((S)-2-(7-(3-(3,5-difluoro-4-((1R,3R)-2-(2-fluoro-2-methylpropyl)-3-methyl-2,3,4,9-tetrahydro-1H-pyrido[3,4-b]indol-1-yl)phenoxy)propoxy)heptanamido)-3,3-dimethylbutanoyl)-4-hydroxy-N-(4-(4-methylthiazol-5-yl)benzyl)pyrrolidine-2-carboxamide], the “ER degradation ≥ 90% at 0.3 μM” value was “••” and the DC50 was determined as 1.7 nM.
`Cc1ncsc1-c1ccc(CNC(=O)[C@@H]2C[C@@H](O)CN2C(=O)[C@@H](NC(=O)COCCCCCOCCOc2cc(F)c([C@@H]3c4[nH]c5ccccc5c4C[C@@H](C)N3CC(C)(C)F)c(F)c2)C(C)(C)C)cc1` [Example 9, (2S,4R)-1-((S)-2-(2-((5-(2-(3,5-Difluoro-4-((1R,3R)-2-(2-fluoro-2-methylpropyl)-3-methyl-2,3,4,9-tetrahydro-1H-pyrido[3,4-b]indol-1-yl)phenoxy)ethoxy)pentyl)oxy)acetamido)-3,3-dimethylbutanoyl)-4-hydroxy-N-(4-(4-methylthiazol-5-yl)benzyl)pyrrolidine-2-carboxamide]: the “ER degradation ≥ 90% at 0.3 μM” value is “••” and the DC50 is 0.7 nM.
For the molecule `Cc1ncsc1-c1ccc(CNC(=O)[C@@H]2C[C@@H](O)CN2C(=O)[C@@H](NC(=O)CCCCCCCCCCOc2cc(F)c([C@@H]3c4[nH]c5ccccc5c4C[C@@H](C)N3CC(C)(C)F)c(F)c2)C(C)(C)C)cc1` [Example 32, (2S,4R)-1-((S)-2-(11-(3,5-Difluoro-4-((1R,3R)-2-(2-fluoro-2-methylpropyl)-3-methyl-2,3,4,9-tetrahydro-1H-pyrido[3,4-b]indol-1-yl)phenoxy)undecanamido)-3,3-dimethylbutanoyl)-4-hydroxy-N-(4-(4-methylthiazol-5-yl)benzyl)pyrrolidine-2-carboxamide], the “ER degradation ≥ 90% at 0.3 μM” value was “•” and the DC50 turned out to be 13 nM.
Consider `Cc1ncsc1-c1ccc(CNC(=O)C2CC(O)CN2C(=O)C(NC(=O)COCCOc2cc(F)c(C3c4[nH]c5ccccc5c4CC(C)N3CC(C)(C)F)c(F)c2)C(C)(C)C)cc1` [Example 40, (2S,4R)-1-((S)-2-(2-(2-(3,5-Difluoro-4-((1R,3R)-2-(2-fluoro-2-methylpropyl)-3-methyl-2,3,49-tetrahydro-1H-pyrido[3,4-b]indol-1-yl)phenoxy)ethoxy)acetamido)-3,3-dimethylbutanoyl)-4-hydroxy-N-(4-(4-methylthiazol-5-yl)benzyl)pyrrolidine-2-carboxamide], for which the “ER degradation ≥ 90% at 0.3 μM” value is on record as “•” and the DC50 worked out at 0.6 nM.
For `Cc1ncsc1-c1ccc(CNC(=O)[C@@H]2C[C@@H](O)CN2C(=O)[C@@H](NC(=O)CCCOc2ccc(COc3cc(F)c([C@@H]4c5[nH]c6ccccc6c5C[C@@H](C)N4CC(C)(C)F)c(F)c3)nc2)C(C)(C)C)cc1` [Example 161, (2S,4R)-1-((S)-2-(4-((6-((3,5-Difluoro-4-((1R,3R)-2-(2-fluoro-2-methylpropyl)-3-methyl-2,3,4,9-tetrahydro-1H-pyrido[3,4-b]indol-1-yl)phenoxy)methyl)pyridin-3-yl)oxy)butanamido)-3,3-dimethylbutanoyl)-4-hydroxy-N-(4-(4-methylthiazol-5-yl)benzyl)pyrrolidine-2-carboxamide] the same measures were “•” and 1.2 nM.
